According to the supplement of paper PMC11451515:

Tested on: NOMO1
Assay: cell viability relative to DMSO control; higher = less cytotoxic
Details: 48 h
How it was run: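 Viability values are per-plate percentages of DMSO wells, with background from cell-free wells. Library compounds in DMSO were pin-dosed, in an 11-point threefold series from 47 μM to 0.79 nM, onto NOMO1 or SEM (500 cells/well) or P12-Ichikawa (1000 cells/well) leukemia cells in 1536-well plates (5 μl). Those cells had been adapted for at least four passages in each medium, and CellTiter-Glo One luminescence was read after 48 h at 37°C.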

[1] = HPLM + 10% dialyzed FBS, 0.000781 µM
[2] = HPLM + 10% dialyzed FBS, 0.00234 µM
[3] = HPLM + 10% dialyzed FBS, 0.00702 µM
[4] = HPLM + 10% dialyzed FBS, 0.0211 µM
[5] = HPLM + 10% dialyzed FBS, 0.0632 µM
[6] = HPLM + 10% dialyzed FBS, 0.19 µM
[7] = HPLM + 10% dialyzed FBS, 0.569 µM
[8] = HPLM + 10% dialyzed FBS, 1.71 µM
[9] = HPLM + 10% dialyzed FBS, 5.12 µM
[10] = HPLM + 10% dialyzed FBS, 15.4 µM
[11] = HPLM + 10% dialyzed FBS, 46.1 µM
[12] = RPMI 5 mM glucose + 10% FBS, 0.000781 µM
[13] = RPMI 5 mM glucose + 10% FBS, 0.00234 µM
[14] = RPMI 5 mM glucose + 10% FBS, 0.00702 µM
[15] = RPMI 5 mM glucose + 10% FBS, 0.0211 µM
[16] = RPMI 5 mM glucose + 10% FBS, 0.0632 µM
[17] = RPMI 5 mM glucose + 10% FBS, 0.19 µM
[18] = RPMI 5 mM glucose + 10% FBS, 0.569 µM
[19] = RPMI 5 mM glucose + 10% FBS, 1.71 µM
[20] = RPMI 5 mM glucose + 10% FBS, 5.12 µM
[21] = RPMI 5 mM glucose + 10% FBS, 15.4 µM
[22] = RPMI 5 mM glucose + 10% FBS, 46.1 µM
[23] = RPMI 5 mM glucose + 10% dialyzed FBS, 0.000781 µM
[24] = RPMI 5 mM glucose + 10% dialyzed FBS, 0.00234 µM
[25] = RPMI 5 mM glucose + 10% dialyzed FBS, 0.00702 µM
[26] = RPMI 5 mM glucose + 10% dialyzed FBS, 0.0211 µM
[27] = RPMI 5 mM glucose + 10% dialyzed FBS, 0.0632 µM
[28] = RPMI 5 mM glucose + 10% dialyzed FBS, 0.19 µM
[29] = RPMI 5 mM glucose + 10% dialyzed FBS, 0.569 µM
[30] = RPMI 5 mM glucose + 10% dialyzed FBS, 1.71 µM
[31] = RPMI 5 mM glucose + 10% dialyzed FBS, 5.12 µM
[32] = RPMI 5 mM glucose + 10% dialyzed FBS, 15.4 µM
[33] = RPMI 5 mM glucose + 10% dialyzed FBS, 46.1 µM

Row | SMILES | cell viability [1] [%] | cell viability [2] [%] | cell viability [3] [%] | cell viability [4] [%] | cell viability [5] [%] | cell viability [6] [%] | cell viability [7] [%] | cell viability [8] [%] | cell viability [9] [%] | cell viability [10] [%] | cell viability [11] [%] | cell viability [12] [%] | cell viability [13] [%] | cell viability [14] [%] | cell viability [15] [%] | cell viability [16] [%] | cell viability [17] [%] | cell viability [18] [%] | cell viability [19] [%] | cell viability [20] [%] | cell viability [21] [%] | cell viability [22] [%] | cell viability [23] [%] | cell viability [24] [%] | cell viability [25] [%] | cell viability [26] [%] | cell viability [27] [%] | cell viability [28] [%] | cell viability [29] [%] | cell viability [30] [%] | cell viability [31] [%] | cell viability [32] [%] | cell viability [33] [%]
1 | C[C@@H]1[C@H](O)[C@@H](C)/C=C/C=C/C=C/C=C/C=C/C=C/C=C/[C@H](O[C@@H]2O[C@H](C)[C@@H](O)[C@H](N)[C@@H]2O)C[C@@H]2O[C@](O)(C[C@@H](O)C[C@@H](O)[C@H](O)CC[C@@H](O)C[C@@H](O)CC(=O)O[C@H]1C)C[C@H](O)[C@H]2C(=O)O | 113 | 121 | 126 | 117 | 114 | 116 | 124 | 123 | 152 | 138 | 133 | 108 | 124 | 112 | 114 | 111 | 115 | 133 | 119 | 125 | 118 | 135 | – | – | – | – | – | – | – | – | – | – | –
2 | Cc1[nH]c2ccccc2c1CCNCc1ccc(/C=C/C(=O)NO)cc1 | 102 | 108 | 126 | 99.9 | 137 | 103 | 61.8 | 14.2 | 9 | 8.41 | 8.11 | 111 | 118 | 108 | 106 | 110 | 102 | 82.9 | 10.9 | 7.29 | 7.8 | 7.5 | 106 | 122 | 116 | 99.5 | 122 | 110 | 84.4 | 13 | 8.52 | 9.32 | 7.81
3 | CCOC(=O)\C1=C(/C)N\C2=C(C1C3=CC=C(C=C3)C4=CC=CC=C4)\C(=O)CC(C)(C)C2 (stereo not given) | 125 | 97.2 | 125 | 117 | 116 | 114 | 102 | 102 | 106 | 82.3 | 73.6 | 107 | 103 | 102 | 108 | 105 | 109 | 103 | 102 | 106 | 87 | 88.2 | 110 | 103 | 111 | 114 | 113 | 95.1 | 104 | 112 | 90.1 | 73.7 | 74.8
4 | CC(C)=CC[C@@H](O)C/1=C/C(=O)C2=C(O)C=CC(=C2C1=O)O | 91.5 | 108 | 95.5 | 100 | 105 | 113 | 123 | 85.1 | 33.5 | 25.8 | 17 | 93.7 | 105 | 102 | 102 | 95.7 | 96 | 108 | 52.6 | 17.3 | 17.9 | 12.2 | 88.2 | 92.6 | 93 | 113 | 98.1 | 109 | 107 | 70.2 | 24.5 | 15.3 | 21.2
5 | COc1ccc(-c2ccc3c(N4CCOC[C@@H]4C)nc(N4CCOC[C@@H]4C)nc3n2)cc1CO | 93.6 | 76.5 | 93.1 | 82.1 | 74.5 | 64.6 | 58.7 | 55.1 | 48 | 9.86 | 3.58 | 103 | 75.7 | 94 | 95.6 | 90.4 | 84.5 | 75.1 | 72.4 | 63.4 | 41.7 | 4.25 | 102 | 63.9 | 98.6 | 86 | 85.9 | 69 | 64 | 70.5 | 57.4 | 52.4 | 5.83
6 | S=P(N1CC1)(N1CC1)N1CC1 | 107 | 105 | 99 | 104 | 98.5 | 98.6 | 110 | 97.3 | 92.4 | 104 | 62.6 | 92.8 | 102 | 95.7 | 96.4 | 103 | 95.7 | 92.7 | 95.5 | 101 | 90.2 | 89.8 | 101 | 105 | 95.4 | 91.4 | 104 | 99.6 | 116 | 98.7 | 95.5 | 98.3 | 92.4
7 | COc1cc2ncnc(Nc3ccc(F)c(Cl)c3)c2cc1NC(=O)/C=C/CN1CCCCC1 | 92.2 | 105 | 114 | 102 | 108 | 118 | 81.9 | 81.8 | 72.1 | 65.6 | 41.5 | 86.4 | 93.7 | 91.1 | 86.3 | 98.4 | 84.9 | 89.6 | 88.4 | 89.1 | 91.7 | 75.5 | 95.7 | 97.7 | 93.6 | 85.4 | 91.3 | 96.6 | 85.1 | 95.2 | 78.3 | 65.6 | 72.9
